Patent US8399515B2, “Five and fifteen carbon fatty acids for treating metabolic disorders and as nutritional supplements” (Baylor Research Institute, priority 2003, dated 2013)
Values joined by “and” are separate entries in the source; they are usually repeats but may differ in a detail not shown here. Identical values can stand only once.

Legend:
[1] = test system: fibroblasts from patients with VLCAD deficiency, non-cardiac milder phenotype; experiment: Propionylcarnitine from oxidation of odd-carbon fatty acids in VLCAD (non-cardiac) fibroblasts; type: cell-based, human; conditions: VLCAD non-cardiac fibroblasts, one line per patient, 72 hours incubation
Protocol: (§1) Fibroblasts obtained from patients with inherited defects of mitochondrial fat oxidation were cultured in the presence of omega deuterated odd-carbon numbered fatty acids, as described in Roe, C. R., Sweetman, L., Roe, D. S., David, F., Brunengraber, H., “Effective Dietary Treatment of Cardiomyopathy & Rhabdomyolysis in Long-Chain Fat Oxidation Disorders using an Anaplerotic Odd-Chain Triglyceride,” J. Clin. Invest. 110 (2): 259-269 (2002).
(§2) The data in Table 1 represents testing of cultured fibroblasts derived from ten patients afflicted with Very-long-chain acyl-CoA dehydrogenase (VLCAD) deficiency (six patients with the severe cardiac form and four with the non-cardiac milder phenotype), two patients with Mitochondrial Trifunctional Protein (MTP) deficiency, five patients having L-3-hydroxy-acyl-CoA dehydrogenase (LCHAD) deficiency and three patients with Short-chain acyl-CoA dehydrogenase (SCAD) deficiency.

[2] = test system: control / normal fibroblasts; experiment: Fate of odd-carbon fatty acids in control (normal) fibroblasts; type: cell-based, human; design: *C3 acylcarnitine / *C5 acylcarnitine / *C7 acylcarnitine / *C9 acylcarnitine / *C11 acylcarnitine / *C13 acylcarnitine / *C15 acylcarnitine: unit not given here; conditions: for Propionylcarnitine from odd carbon precursor: NORMAL fibroblasts
Protocol: Fibroblasts obtained from patients with inherited defects of mitochondrial fat oxidation were cultured in the presence of omega deuterated odd-carbon numbered fatty acids, as described in Roe, C. R., Sweetman, L., Roe, D. S., David, F., Brunengraber, H., “Effective Dietary Treatment of Cardiomyopathy & Rhabdomyolysis in Long-Chain Fat Oxidation Disorders using an Anaplerotic Odd-Chain Triglyceride,” J. Clin. Invest. 110 (2): 259-269 (2002). […]

[3] = test system: fibroblasts from patients with Short-chain acyl-CoA dehydrogenase (SCAD) deficiency; experiment: Propionylcarnitine from oxidation of odd-carbon fatty acids in SCAD fibroblasts; type: cell-based, human; conditions: SCAD fibroblasts, one line per patient, 72 hours incubation
Protocol: as §1, §2

[4] = test system: fibroblasts from patients with L-3-hydroxy-acyl-CoA dehydrogenase (LCHAD) deficiency; experiment: Propionylcarnitine from oxidation of odd-carbon fatty acids in LCHAD fibroblasts; type: cell-based, human; conditions: LCHAD fibroblasts, one line per patient, 72 hours incubation
Protocol: as §1, §2

[5] = test system: VLCAD patient; experiment: Meal test with triheptanoin or tripentanoin in a VLCAD patient; type: in vivo, human; design: Myristenoylcarnitine Level: unit not given here; conditions: for Myristenoylcarnitine Level / Propionylcarnitine Level: blood
Excerpt: (§3) A VLCAD patient and an SCAD patient, both of whom had gastrostomy sites for enteral administration, each were provided with separate meals containing equimolar amounts of triheptanoin (C7) and tripentanoin (C5) at different times on the same day. Each patient was given the amount in 1 of 4 daily meals equivalent to a diet of 3 gms/Kg/day or about 30% of total Kcal as the triglyceride. Serial blood samples were obtained hourly and individual urines were collected at baseline and during the meal.
(§4) The patient with VLCAD (FIG. 3) was monitored over a 3 hour interval and the SCAD patient was monitored for 4 hours after beginning the meal. […] One way the VLCAD patient was monitored was for myristenoylcamitine (cis-5-C14:1), which reflects oxidation of oleate and is therefore an indication of ongoing lipolysis during the meal tests (it is not derived from either C7 or C5). […] These changes are not observed with even-carbon triglycerides.

[6] = test system: fibroblasts from patients with Mitochondrial Trifunctional Protein (MTP) deficiency; experiment: Propionylcarnitine from oxidation of odd-carbon fatty acids in MTP fibroblasts; type: cell-based, human; conditions: MTP fibroblasts, one line per patient, 72 hours incubation
Protocol: as §1, §2

[7] = test system: SCAD patient; experiment: Meal test with triheptanoin or tripentanoin in a SCAD patient; type: in vivo, human
Excerpt: as §3, §4
The second patient with SCAD deficiency (FIG. 4) had been receiving the triheptanoin diet for more than 2 years. This disorder is due to an inherited deficiency of butyryl-CoA dehydrogenase (SCAD) and is known to oxidize even carbon fatty acids of 4-6 carbon chain length.
In FIG. 4, C7-C3 represents the blood levels of C3 derived from C7; and C5-C3 represents the blood levels of C3 derived from C5, C7-C5 represents blood levels of pentanoylcarnitine (C5) derived from C7 meals and C5-C5 represents blood levels of pentanoylcarnitine (C5) derived from C5 meals. […] C7-C4 and C5-C4 represent the levels of the disease-specific acylcarnitine (butyrylcarnitine [C4]) observed in SCAD deficiency. […] This increased quantity of C3 corresponds to those observed for SCAD deficiency in the fibroblast studies above shown in Table 1.

[8] = test system: fibroblasts from MCAD heterozygote (carrier); experiment: Fate of odd-carbon fatty acids in MCAD carrier fibroblasts; type: cell-based, human; design: unit not given here
Protocol: as §1
Fibroblasts from four patients with MCAD deficiency and one heterozygote (carrier) indicate that odd-carbon fatty acids containing more than seven carbons can not be effectively used in that disease. […] That any C3 was produced is presumably due to overlapping

[9] = test system: MCAD-deficient fibroblasts; experiment: Fate of odd-carbon fatty acids in MCAD-deficient fibroblasts; type: cell-based, human; design: *C3 acylcarnitine / *C5 acylcarnitine / *C7 acylcarnitine / *C9 acylcarnitine / *C11 acylcarnitine / *C13 acylcarnitine / *C15 acylcarnitine: unit not given here; conditions: for *C3 acylcarnitine / *C5 acylcarnitine / *C7 acylcarnitine / *C9 acylcarnitine: MCAD fibroblasts, N 4
Protocol: as §1
Fibroblasts from four patients with MCAD deficiency and one heterozygote (carrier) indicate that odd-carbon fatty acids containing more than seven carbons can not be effectively used in that disease. […]

[10] = test system: fibroblasts from patients with Very-long-chain acyl-CoA dehydrogenase (VLCAD) deficiency, severe cardiac form; experiment: Propionylcarnitine from oxidation of odd-carbon fatty acids in VLCAD (cardiac) fibroblasts; type: cell-based, human; conditions: VLCAD cardiac fibroblasts, one line per patient, 72 hours incubation
Protocol: as §1, §2

## CCCCCCC(=O)O [C7, heptanoate, reference compound]
[1]
  Propionylcarnitine from oxidation of fatty acid: 22.6 nmol/mg Protein/72 hours and 20.3 nmol/mg Protein/72 hours and 24.3 nmol/mg Protein/72 hours and 14.4 nmol/mg Protein/72 hours
[2]; CONTROL MEAN, N = 4
  *C3 acylcarnitine: 24.3
  *C5 acylcarnitine: 1.3
  *C7 acylcarnitine: 0.4
[2]
  Propionylcarnitine from odd carbon precursor: 24.3 nmol/mg Protein/72 hours
[3]
  Propionylcarnitine from oxidation of fatty acid: 57.7 nmol/mg Protein/72 hours and 32.4 nmol/mg Protein/72 hours and 39.2 nmol/mg Protein/72 hours
[4]
  Propionylcarnitine from oxidation of fatty acid: 53.2 nmol/mg Protein/72 hours and 23.5 nmol/mg Protein/72 hours and 24.0 nmol/mg Protein/72 hours and 10.6 nmol/mg Protein/72 hours and 22.7 nmol/mg Protein/72 hours
[5]; time 0 hours, cis-5-C14:1, marker of lipolysis
  Myristenoylcarnitine Level: 2.61
[5]; time 0 hours, enteral meal via gastrostomy
  Propionylcarnitine Level: 1.39
[5]; time 1 hours
  Myristenoylcarnitine Level: 2.83
  Propionylcarnitine Level: 2.89
[5]; time 2 hours
  Myristenoylcarnitine Level: 1.38
  Propionylcarnitine Level: 3.78
[5]; time 3 hours
  Myristenoylcarnitine Level: 2.64
  Propionylcarnitine Level: 4.57
[5]; meal test, 3 hour interval
  Clinical or biochemical toxicity: no clinical or biochemical toxicity
[6]
  Propionylcarnitine from oxidation of fatty acid: 24.1 nmol/mg Protein/72 hours and 48.1 nmol/mg Protein/72 hours
[7]; meal test, 4 hours
  Clinical or biochemical toxicity: no clinical or biochemical toxicity
[7]; time 0 hours
  Relative Blood Levels of Fatty Acid Chain Lengths: C3: 3.00
  Relative Blood Levels of Fatty Acid Chain Lengths: C4 (butyrylcarnitine): 0.34
[7]; time 1 hours
  Relative Blood Levels of Fatty Acid Chain Lengths: C3: 2.08
  Relative Blood Levels of Fatty Acid Chain Lengths: C4 (butyrylcarnitine): 0.16
[7]; time 2 hours
  Relative Blood Levels of Fatty Acid Chain Lengths: C3: 2.42
  Relative Blood Levels of Fatty Acid Chain Lengths: C4 (butyrylcarnitine): 0.23
[7]; time 3 hours
  Relative Blood Levels of Fatty Acid Chain Lengths: C3: 3.29
  Relative Blood Levels of Fatty Acid Chain Lengths: C4 (butyrylcarnitine): 0.26
[7]; time 4 hours
  Relative Blood Levels of Fatty Acid Chain Lengths: C3: 2.61
  Relative Blood Levels of Fatty Acid Chain Lengths: C4 (butyrylcarnitine): 0.30
[8]
  *C3 acylcarnitine: 16.3
  *C5 acylcarnitine: 0.9
  *C7 acylcarnitine: 0.5
[9]; Maximum
  *C3 acylcarnitine: 15.4
  *C5 acylcarnitine: 1.8
  *C7 acylcarnitine: 12.0
[9]; Mean
  *C3 acylcarnitine: 8.3
  *C5 acylcarnitine: 1.1
  *C7 acylcarnitine: 8.3
[9]; Minimum
  *C3 acylcarnitine: 5.7
  *C5 acylcarnitine: 0.7
  *C7 acylcarnitine: 2.4
[9]; MCAD-1 fibroblast cell line
  Propionylcarnitine from odd carbon precursor: 10.6 nmol/mg Protein/72 hours
[9]; MCAD-2 fibroblast cell line
  Propionylcarnitine from odd carbon precursor: 17.4 nmol/mg Protein/72 hours
[10]
  Propionylcarnitine from oxidation of fatty acid: 28.7 nmol/mg Protein/72 hours and 13.0 nmol/mg Protein/72 hours and 44.5 nmol/mg Protein/72 hours and 17.8 nmol/mg Protein/72 hours and 20.4 nmol/mg Protein/72 hours and 25.0 nmol/mg Protein/72 hours

## CCCCCCCCC(=O)O [C9, nonanoate, reference compound]
[2]; CONTROL MEAN, N = 4
  *C3 acylcarnitine: 3.9
  *C5 acylcarnitine: 0.4
  *C7 acylcarnitine: 0.3
  *C9 acylcarnitine: 2.0
[2]
  Propionylcarnitine from odd carbon precursor: 3.9 nmol/mg Protein/72 hours
[8]
  *C3 acylcarnitine: 6.0
  *C5 acylcarnitine: 0.4
  *C7 acylcarnitine: 0.4
  *C9 acylcarnitine: 3.2
[9]; Maximum
  *C3 acylcarnitine: 5.5
  *C5 acylcarnitine: 0.7
  *C7 acylcarnitine: 4.2
  *C9 acylcarnitine: 10.3
[9]; Mean
  *C3 acylcarnitine: 3.0
  *C5 acylcarnitine: 0.5
  *C7 acylcarnitine: 2.8
  *C9 acylcarnitine: 7.3
[9]; Minimum
  *C3 acylcarnitine: 1.6
  *C5 acylcarnitine: 0.3
  *C7 acylcarnitine: 1.6
  *C9 acylcarnitine: 4.0
[9]; MCAD-1 fibroblast cell line
  Propionylcarnitine from odd carbon precursor: 1.8 nmol/mg Protein/72 hours
[9]; MCAD-2 fibroblast cell line
  Propionylcarnitine from odd carbon precursor: 2.9 nmol/mg Protein/72 hours
